Where “and” joins values, the source holds several entries; their conditions need not be identical. Equal values may be shown once. Entries after “also recorded” stand apart in the source; their conditions may differ.
Columns and labels:
Serotonin-uptake = Serotonin-uptake (Homo sapiens, UniProt P31645); test: Novascreen serotonin-uptake assay, with reference to imipramine HCl; type: biochemical; conditions: for serotonin-uptake inhibition (in words): FIGS. 1 to 4, comparison with imipramine HCl
Excerpt: FIG. 2 is a graph for a serotonin-uptake assay of a whole plant extract of a plant from the family Mesembryanthemaceae, identified by the code number 18639, as well as some comparisons with the known serotonin-uptake inhibitor imipramine HCl;
FIG. 3 is a graph for a serotonin-uptake assay for mesembranol, identified by the code number 18623, as well as some comparisons with the known serotonin-uptake inhibitor imipramine HCl; and
FIG. 4 is a graph for a serotonin-uptake assay for mesembranone, identified by the code number 18622, as well as some comparisons with the known serotonin-uptake inhibitor imipramine HCl.
In addition, the whole plant extract of Sceletium N.E.Br., mesembranol and mesembranone were screened for biological activity by the National Institute of Mental Health in the United States of America through the contract with Novascreen.

GABA B = test: Novascreen GABA B receptor screen; type: binding; conditions: Average: N = 2; Concentration 5,0E1
healthy adult volunteers = test: Study 2: single sublingual dose of pure (-)-mesembrine in healthy adult volunteers; type: in vivo; conditions: single 200 microgram sublingual dose in 1 ml of 60% ethanol
Procedure: Various […] studies of the effects of the compounds of the invention were carried out in adult volunteers as follows:
Study 2. N=2 Healthy Adult Volunteers, All Health Professionals Sep. 21, 1996.

Serotonin-uptake, sequence (P31645 whole entry): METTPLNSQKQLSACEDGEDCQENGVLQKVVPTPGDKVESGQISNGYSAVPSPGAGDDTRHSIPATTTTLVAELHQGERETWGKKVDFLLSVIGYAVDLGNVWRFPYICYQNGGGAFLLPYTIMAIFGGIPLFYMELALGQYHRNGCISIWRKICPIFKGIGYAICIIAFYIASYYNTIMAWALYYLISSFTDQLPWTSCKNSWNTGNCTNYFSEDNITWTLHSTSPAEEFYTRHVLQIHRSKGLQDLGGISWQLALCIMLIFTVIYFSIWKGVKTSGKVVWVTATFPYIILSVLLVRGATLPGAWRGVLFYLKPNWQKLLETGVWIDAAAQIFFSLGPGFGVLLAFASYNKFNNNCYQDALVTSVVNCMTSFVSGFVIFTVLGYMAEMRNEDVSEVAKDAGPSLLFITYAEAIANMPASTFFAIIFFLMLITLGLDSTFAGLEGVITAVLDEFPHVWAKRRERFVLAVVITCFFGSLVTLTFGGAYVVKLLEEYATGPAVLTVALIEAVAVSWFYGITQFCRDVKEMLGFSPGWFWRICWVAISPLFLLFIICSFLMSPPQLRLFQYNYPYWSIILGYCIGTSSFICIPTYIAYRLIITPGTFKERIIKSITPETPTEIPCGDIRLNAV

Structure (SMILES)	Percent Inhibition, Serotonin-uptake (Serotonin-uptake; Average: N = 2, Concentration 5,0E1)	serotonin-uptake inhibition (in words) (Serotonin-uptake)	Percent Inhibition, GABA B (GABA B)	Anxiolytic effect (healthy adult volunteers; N=2)	Duration of anxiolytic action (healthy adult volunteers; N=2)	Sustained elevation of mood (healthy adult volunteers; N=2)	Duration of sustained elevation of mood (healthy adult volunteers; N=2, individual volunteers)	Onset of action (healthy adult volunteers; N=2, individual volunteers)
COc1ccc(C23CCC(=O)CC2N(C)CC3)cc1OC (single isomer, unassigned; (-)) [(-)-mesembrine, 3a-(3,4-dimethoxyphenyl)-octahydro-1-methyl-6H-indol-6-one]	96,5%	highly potent serotonin-uptake inhibitor	-0,6%	noted by both	five hours to eight hours	noted by both	approximately eight; also recorded: eleven	7 min and 12 min
COc1ccc(C23C=CC(=O)CC2N(C)CC3)cc1OC (stereo not shown) [mesembranone]	–	highly potent serotonin-uptake inhibitors	–	–	–	–	–	–
COc1ccc(C23CCC(O)CC2N(C)CC3)cc1OC (stereo not shown) [mesembranol]	–	highly potent serotonin-uptake inhibitors	–	–	–	–	–	–
